Patent US7799326B2, “Methods and compositions for cathespin k complex-mediated disorders” (Mount Sinai School of Medicine, priority 2001, dated 2010)
Each block holds one compound with its values, some of them ahead of it.

Key:
cathepsin K [1] = biological target: T1, cathepsin K (Homo sapiens, UniProt P43235); assay: Superdex 200 gel filtration of cathepsin K preincubated with polymers; type: binding; conditions: for effect on CSA/cathepsin K complex formation: 0.15% test substance + 0.15% CSA, gel filtration; for formation of a high molecular weight complex with cathepsin K: 0.15% test substance without CSA; for elution volume (Ve) of the complex with cathepsin K: 30 μg cathepsin K preincubated with 0.15% polymer, Superdex 200, no NaCl
T1 construct: may comprise the native mature cathepsin K peptide
T1 sequence (P43235 115-329): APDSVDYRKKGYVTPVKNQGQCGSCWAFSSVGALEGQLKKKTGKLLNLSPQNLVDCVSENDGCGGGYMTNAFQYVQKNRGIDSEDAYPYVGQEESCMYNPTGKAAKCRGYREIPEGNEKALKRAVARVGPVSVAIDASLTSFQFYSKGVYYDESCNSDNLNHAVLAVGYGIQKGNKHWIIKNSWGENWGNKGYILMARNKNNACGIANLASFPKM
Description: The elution buffer was 100 mM sodium acetate, pH 5.5, 1 mM EDTA/DTT.
The protein elution was recorded at OD280 nm and fractions were assayed for the hydrolysis of the cathepsin K substrate Z-Leu-Arg-MCA. […] The sample was loaded into the well of a 0.5% agarose gel and separated at room temperature at 55 V, 250 mA for 30 min in a running buffer containing 125 mM sodium acetate, pH 5.0,0.5 mM EDTA, 1 mM DTT, 40 mM NaCl, and 0.1% Chaps. The gel was dried and subsequently exposed to an X-ray film. The conditions for lane 3 were modified by the addition of 300 mM NaCl into the agarose gel and running buffer. […] Activity assays were performed using Z-LR-MCA as substrate in 100 mM sodium acetate buffer, pH 5.5, containing 2.5 mM EDTA/DTT and 0.5 nM recombinant human cathepsin K.
30 μg of cathepsin K were preincubated with elution buffer containing 0.15% low molecular fraction (V3 67.2 ml) of dermatan sulfate (DS) 0.15% 2-15 kD poly-D-Glu, or 0.15% 10 kD dextran sulfate for 20 min, and then applied to a Superdex 200 column. The elution buffer was 100 mM sodium acetate, pH 5.5, containing 1 mM EDTA/DTT.
(§1) The elution buffer was 100 mM sodium acetate, pH 5.5, 1 mM EDTA/DTT. […] The reaction was stopped by the addition of 10 μM E-64 and the samples were analyzed by 4-20% SDS-Page.
as §1, §1, §1

cathepsin K/CSA complex = biological target: T2, cathepsin K/CSA complex (Homo sapiens, UniProt P43235); assay: Soluble type I collagen digestion by cathepsin K, analysed by SDS-PAGE; type: biochemical; conditions: 28° C.; for effect on type I collagen degradation by cathepsin K in the presence of CSA: 0.15% test substance + 0.15% CSA, 800 nM cathepsin K; for collagenase activity of the complex formed with cathepsin K (type I collagen): 0.15% polymer, pH 5.5
T2 construct: may comprise the native mature cathepsin K peptide
T2 sequence (P43235 115-329): T1 sequence (P43235 115-329)
Description: Soluble type I bovine collagen was digested with 800 nM cathepsin K at 28° C., in 100 mM sodium acetate buffer pH 5.5, containing 2.5 mM EDTA/DTT. The reaction was stopped by the addition of 10 μM E-64 after various time periods and the samples were analyzed by 4-20% SDS-Page. […] The reaction was stopped by the addition of 10 μM E-64 after 8 h of incubation and the samples were analyzed by 4-20% SDS-polyacrylarnide electrophoresis.
Soluble type I bovine collagen was digested with 800 nM purified recombinant human cathepsin K and gelatin (soluble type I collagen was heated for 20 min at 70 C) with 0.5 nM cathepsin K at 28° C. and 37 C, in 100 mM sodium acetate buffer, pH 5.5, containing 2.5 mM EDTA/DTT. […] The reaction was stopped by the addition of 10 μM E-64 after 8 h of incubation and the samples were analyzed by 4-20% SDS-polyacrylamide electrophoresis.
The reactions were stopped by the addition of 10 μM E-64 and the samples were analyzed by 4-20% SDS-Page.
as §1, §1
The reaction was stopped by the addition of 10 μM E-64 and the samples were analyzed by 4-20% SDS-Page.
as §1, §1

CSA/Cat K complex = biological target: T3, CSA/Cat K complex (Homo sapiens, UniProt P43235); assay: Fluoresceinamine-labeled CSA/Cat K complex formation fluorescence assay; type: binding; conditions: 120 nM Cat K; 0.6 μg/ml FL-CSA; excitation 300 nm, emission 604 nm
T3 construct: may comprise the native mature cathepsin K peptide
T3 sequence (P43235 115-329): T1 sequence (P43235 115-329)
Description: Curve 1: 120 nM Cat K, then 0.6 μg/ml FL-CSA, and then 3 μg/ml dextran sulfate; Curve 2:,0.6 μg/ml FL-CSA, then 120 nM Cat K, and then 3 μg/ml dextran sulfate.
The pH was adjusted to pH 11 by addition of 5 M NaOH. […] The mixture was kept overnight at 4° C. for the coupling reaction. Subsequently, the mixture was concentrated to 1 ml using a SpeedVac concentrator and purified on a PD-10 column and eluded by 50 mM sodium acetate buffer, pH 5.5.
Cat K at a final concentration of 120 nM was added to 1 ml 100 mM sodium acetate buffer, pH 5.5 containing 2 mM EDTA/DTT using 2 milliliter cuvettes. The fluorescence signal for the protein alone is close to zero. […] After the addition of complex formation inhibitors, the fluorescence signal dropped to zero (FIG. 1). This assay allows the simple and convenient screening of compounds capable to interfere with complex formation.

cathepsin K [2] = biological target: T1, cathepsin K; assay: Agarose gel electrophoretic mobility shift assay of cathepsin K complexes; type: binding; conditions: for effect on CSA/cathepsin K complex formation: 0.15% test polymer + 0.15% CSA, mobility shift; for affinity to cathepsin K relative to CSA: inferred from competition with 0.15% CSA
Description: The protein elution was recorded at OD280 nm and fractions were assayed for the hydrolysis of the cathepsin K substrate Z-Leu-Arg-MCA. […] The gel was dried and subsequently exposed to an X-ray film. […] Activity assays were performed using Z-LR-MCA as substrate in 100 mM sodium acetate buffer, pH 5.5, containing 2.5 mM EDTA/DTT and 0.5 nM recombinant human cathepsin K.
After exposure of the dried gel to an X-ray film, the signal of free cathepsin K was densitometrically determined and the amount of cathepsin K in the complex was calculated (cat Kcompley=cat Ktotal−cat Kfree).
Samples were subsequently mixed with non-reducing protein sample buffer, DNA dye, and melted agarose gel (melted at 37 C; 0.4% final concentration) at 37 C and embedded into a pre-made wells of a 0.5% agarose gel (running conditions: 25° C.; 55 V, 250 mA for 30 min). The gel was stained with toluidine blue for glycosaminoglycans and coomassie blue for protein.

[3] = Mobility shift assay of complex formation of proteases with CSA; type: binding; conditions: 50 ng [125I]DCG-04 labeled protease; 0.1% CSA
Description: The gel was run at about 25° C. 55 V, 250 mA for 30 min, then dried and developed the radio signal on a film.

- effect on CSA/cathepsin K complex formation (cathepsin K [1]): did not interfere with complex formation
- effect on type I collagen degradation by cathepsin K in the presence of CSA (cathepsin K/CSA complex): identical
- effect on fluorescence signal of FL-CSA/Cat K complex (CSA/Cat K complex): did not show any effect
Compound: CC(=O)N[C@H]1C(O)O[C@H](CO)[C@H](OS(=O)(=O)O)[C@@H]1O[C@@H]1OC(C(=O)O)=C[C@H](O)[C@H]1O (stereo partly drawn) [CSA disaccharide, chondroitin disaccharide-4S]
- formation of a high molecular weight complex with cathepsin K (cathepsin K [1]): unable to generate high-molecular complexes with cathepsin K

Compound: [Cl-].[Na+] [NaCl]
- effect on cathepsin K complex formation (cathepsin K [1]; elution in the presence of 300 mM NaCl, cathepsin K/CSA mixture): inhibits the formation of cathepsin K complexes
- effect on cathepsin K/CSA complex (cathepsin K [2]; 300 mM NaCl in agarose gel and running buffer, 0.1% CSA): the complex dissociated

Compound: Cat L: human cathepsin L, closely related cysteine protease
- complex formation with CSA [3]: Only cathepsin K formed a stable complex

- elution volume (Ve) of the complex with cathepsin K (cathepsin K [1]): 14 mL
- effect on fluorescence signal of FL-CSA/Cat K complex (CSA/Cat K complex): decrease the fluorescence signal
Compound: dermatan sulfate

- effect on type I collagen degradation by cathepsin K in the presence of CSA (cathepsin K/CSA complex): identical
- effect on fluorescence signal of FL-CSA/Cat K complex (CSA/Cat K complex): did not show any effect
Compound: dextran
- formation of a high molecular weight complex with cathepsin K (cathepsin K [1]): did not form a high molecular weight complex with cathepsin K

- elution volume (Ve) of the complex with cathepsin K (cathepsin K [1]): 13.5 mL
- effect on CSA/cathepsin K complex formation (cathepsin K [2]): blocked
- collagenase activity of the complex formed with cathepsin K (type I collagen) (cathepsin K/CSA complex): did not exhibit collagenase activity
- effect on fluorescence signal of FL-CSA/Cat K complex (CSA/Cat K complex): decrease the fluorescence signal
Compound: dextran sulfate
- effect on CSA/cathepsin K complex formation (cathepsin K [1]): prevented the formation of a cathepsin K/CSA complex
- affinity to cathepsin K relative to CSA (cathepsin K [2]): bind with a higher affinity to cathepsin K than CSA
- effect on type I collagen degradation by cathepsin K in the presence of CSA (cathepsin K/CSA complex): prevents the degradation of type I collagen

- effect on fluorescence signal of FL-CSA/Cat K complex (CSA/Cat K complex): decrease the fluorescence signal
Compound: heparan sulfate

- elution volume (Ve) of the complex with cathepsin K (cathepsin K [1]): 14.2 mL
- effect on CSA/cathepsin K complex formation (cathepsin K [2]): blocked
- collagenase activity of the complex formed with cathepsin K (type I collagen) (cathepsin K/CSA complex): did not exhibit collagenase activity
Compound: poly-D-Glu
- effect on CSA/cathepsin K complex formation (cathepsin K [1]): prevented the formation of a cathepsin K/CSA complex
- affinity to cathepsin K relative to CSA (cathepsin K [2]): bind with a higher affinity to cathepsin K than CSA
- effect on type I collagen degradation by cathepsin K in the presence of CSA (cathepsin K/CSA complex): prevents the degradation of type I collagen

- effect on fluorescence signal of FL-CSA/Cat K complex (CSA/Cat K complex): did not show any effect
Compound: poly-alanine

- effect on fluorescence signal of FL-CSA/Cat K complex (CSA/Cat K complex): decrease the fluorescence signal
Compound: poly-aspartic acid

- effect on fluorescence signal of FL-CSA/Cat K complex (CSA/Cat K complex): decrease the fluorescence signal
Compound: poly-glutamic acid

Compound: poly-lysine
- effect on fluorescence signal of FL-CSA/Cat K complex (CSA/Cat K complex): did not show any effect
